Assay results taken from patent EP0292191A1, “2-(Substituted methyl)-1-alkylcarbapenem derivatives” (Merck & Co., Inc., priority 1987, dated 1988).

Tests used:
Conditions in all cases: relative to thienamycin (=1.0)
Ps. aeruginosa = assay: Agar disc-diffusion assay, relative antibacterial potency; format: cell-based
Protocol: (§1) The antibacterial activities of the compounds of this invention illustrated in the examples were determined using the following method.
(§2) Antibacterial activities were determined by the disc-diffusion assay described by Bauer et al., Amer. J. Clin. Pathol., 45, 493 (1966), except that an agar thickness of 0.2 cm was used. Thienamycin or imipenem was used as the internal standard. For maximum reproducibility, the inner, completely clear region of the zone of inhibition was measured. Inhibiting concentration at the edge of the zone was computed for each test compound using equation (3) (rearranged) reported by Humphrey and Lightbown in J. Gen. Microbiol., 7, 129 (1952), which takes into account differing molecular weights and resulting diffusion constants. Ratios of the geometric means of the inhibitory concentrations to that of thienamycin were determined for each test compound.
(§3) Antibacterial potencies were determined using standard agar disc diffusion assays and are reported relative to thienamycin (=1.0). Dehydropeptidase-I (DHP-I) susceptibilities were determined by the method of Kropp et al., Antimicrobial Agents Chemother., 22, 62-70 (1982), and are reported relative to thienamycin (=1.0).

Klebsiella = assay: as above; format: cell-based
Protocol: as §1, §2, §3

Proteus (Ind. + and -) = assay: as above; format: cell-based
Protocol: as §1, §2, §3

S. aureus = assay: as above; format: cell-based
Protocol: as §1, §2, §3

Enterococcus = assay: as above; format: cell-based
Protocol: as §1, §2, §3

Serratia = assay: as above; format: cell-based
Protocol: as §1, §2, §3

E. coli = assay: as above; format: cell-based
Protocol: as §1, §2, §3

Enterobacter = assay: as above; format: cell-based
Protocol: as §1, §2, §3

[1] = test system: Dehydropeptidase-I (DHP-I); assay: Dehydropeptidase-I susceptibility (method of Kropp et al.); format: in vitro ADME
From the text: Antibacterial compounds of Formula I are of the broad class known as carbapenems or 1-carbadethiapenems. Certain of these carbapenems are susceptible to attack by a renal enzyme known as dehydropeptidase (DHP). This attack or degradation may reduce the efficacy of the carbapenem antibacterial agent. Inhibitors of DHP and their use with carbapenem antibacterial agents are disclosed in the prior art. See European Patent Applications No. 79102616.4 filed July 24, 1979 (Publication No. 0 010 573); 79102615.6, filed July 24, 1979 (Publication No. 0 007 614); and 82107174.3, filed August 9, 1982 (Publication No. 0 072 014).
as §3

C[C@@H](O)[C@H]1C(=O)N2C(C(=O)O)=C(CO)[C@H](C)[C@H]12 [Example 1, Potassium (1S,1′R,5R,6S)-2-hydroxymethyl-6-(1′-hydroxyethyl)-1-methylcarbapen-2-em-3-carboxylate]
Relative Antibacterial Potencies (Ps. aeruginosa): 0.2
Relative Antibacterial Potencies (Klebsiella): 2.0
Relative Antibacterial Potencies (Proteus (Ind. + and -)): 3.0
Relative Antibacterial Potencies (S. aureus): 0.4
Relative Antibacterial Potencies (Enterococcus): 1.0
Relative Antibacterial Potencies (Serratia): 4.3
Relative Antibacterial Potencies (E. coli): 2.3
Relative Antibacterial Potencies (Enterobacter): 3.7
DHP-I susceptibility [1]: 0.76

CC(=O)OCC1=C(C(=O)O)N2C(=O)[C@H]([C@@H](C)O)[C@H]2[C@H]1C [Example 2, Potassium (1S,1′R,5R,6S)-2-acetoxymethyl-6-(1′-hydroxyethyl)-1-methylcarbapen-2-em-3-carboxylate]
Relative Antibacterial Potencies (Ps. aeruginosa): 0.09
Relative Antibacterial Potencies (Klebsiella): 2.5
Relative Antibacterial Potencies (Proteus (Ind. + and -)): 27.9
Relative Antibacterial Potencies (S. aureus): 0.7
Relative Antibacterial Potencies (Enterococcus): 2.8
Relative Antibacterial Potencies (Serratia): 12.1
Relative Antibacterial Potencies (E. coli): 4.0
Relative Antibacterial Potencies (Enterobacter): 7.0
DHP-I susceptibility [1]: 0.52

C[C@@H](O)[C@H]1C(=O)N2C(C(=O)O)=C(CN=[N+]=[N-])[C@H](C)[C@H]12 [Example 3, Potassium (1S,1′R,5R,6S)-2-azidomethyl-6-(1′-hydroxyethyl)-1-methylcarbapen-2-em-3-carboxylate]
Relative Antibacterial Potencies (Ps. aeruginosa): 0.06
Relative Antibacterial Potencies (Klebsiella): 4.3
Relative Antibacterial Potencies (Proteus (Ind. + and -)): 29.9
Relative Antibacterial Potencies (S. aureus): 1.4
Relative Antibacterial Potencies (Enterococcus): 2.0
Relative Antibacterial Potencies (Serratia): 22.6
Relative Antibacterial Potencies (E. coli): 9.2
Relative Antibacterial Potencies (Enterobacter): 11.3
DHP-I susceptibility [1]: 7.29

C[C@@H](O)[C@H]1C(=O)N2C(C(=O)O)=C(COC(N)=O)[C@H](C)[C@H]12 [Example 4, Potassium (1S,1′R,5R,6S)-2-aminocarbonyloxy methyl-6-(1′-hydroxyethyl)-1-methylcarbapen-2-em-3-carboxylate]
Relative Antibacterial Potencies (Ps. aeruginosa): 0.4
Relative Antibacterial Potencies (Klebsiella): 7.0
Relative Antibacterial Potencies (Proteus (Ind. + and -)): 14.9
Relative Antibacterial Potencies (S. aureus): 0.9
Relative Antibacterial Potencies (Enterococcus): 5.7
Relative Antibacterial Potencies (Serratia): 32
Relative Antibacterial Potencies (E. coli): 6.1
Relative Antibacterial Potencies (Enterobacter): 22.6
DHP-I susceptibility [1]: 0.39

CNC(=O)OCC1=C(C(=O)O)N2C(=O)[C@H]([C@@H](C)O)[C@H]2[C@H]1C [Example 5, Potassium (1S,1′R,5R,6S)-2-methylaminocarbonyl oxymethyl-6-(1′-hydroxyethyl)-1-methylcarbapen-2-em-3-carboxylate]
Relative Antibacterial Potencies (Ps. aeruginosa): 0.2
Relative Antibacterial Potencies (Klebsiella): 7.0
Relative Antibacterial Potencies (Proteus (Ind. + and -)): 16
Relative Antibacterial Potencies (S. aureus): 0.8
Relative Antibacterial Potencies (Enterococcus): 3.7
Relative Antibacterial Potencies (Serratia): 16
Relative Antibacterial Potencies (E. coli): 5.7
Relative Antibacterial Potencies (Enterobacter): 9.8
DHP-I susceptibility [1]: 0.59

C[C@@H](O)[C@H]1C(=O)N2C(C(=O)O)=C(COC(=O)Nc3ccccc3)[C@H](C)[C@H]12 [Example 6, Potassium (1S,1′R,5R,6S)-2-phenylaminocarbonyloxymethyl-6-(1′-hydroxyethyl)-1-methylcarbapen-2-em-3-carboxylate]
Relative Antibacterial Potencies (Ps. aeruginosa): 0.03
Relative Antibacterial Potencies (Klebsiella): 0.2
Relative Antibacterial Potencies (Proteus (Ind. + and -)): 4.9
Relative Antibacterial Potencies (S. aureus): 1.2
Relative Antibacterial Potencies (Enterococcus): 2.8
Relative Antibacterial Potencies (Serratia): 0.3
Relative Antibacterial Potencies (E. coli): 0.6
Relative Antibacterial Potencies (Enterobacter): 0.2
DHP-I susceptibility [1]: 1.35

C[C@@H](O)[C@H]1C(=O)N2C(C(=O)O)=C(COC(=O)N(C)C)[C@H](C)[C@H]12 [Example 7, Potassium (1S,1′R,5R,6S)-2-dimethylamino carbonyloxymethyl-6-(1′-hydroxyethyl)-1-methylcarbapen-2-em-3-carboxylate]
Relative Antibacterial Potencies (Ps. aeruginosa): 0.04
Relative Antibacterial Potencies (Klebsiella): 0.4
Relative Antibacterial Potencies (Proteus (Ind. + and -)): 11.3
Relative Antibacterial Potencies (S. aureus): 1.4
Relative Antibacterial Potencies (Enterococcus): 1.2
Relative Antibacterial Potencies (Serratia): 1.4
Relative Antibacterial Potencies (E. coli): 0.6
Relative Antibacterial Potencies (Enterobacter): 0.8
DHP-I susceptibility [1]: 0.29

C[C@@H](O)[C@H]1C(=O)N2C(C(=O)[O-])=C(COC(=O)NCC[n+]3ccccc3)[C@H](C)[C@H]12 [Example 8, (1S,1′R,5R,6S)-6-(1′-hydroxyethyl)-1-methyl-2-(2˝-pyridiniumethylaminocarbonyloxymethyl)carbapen-2-em-3-carboxylic acid]
Relative Antibacterial Potencies (Ps. aeruginosa): 0.33
Relative Antibacterial Potencies (Klebsiella): 1.1
Relative Antibacterial Potencies (Proteus (Ind. + and -)): 2.5
Relative Antibacterial Potencies (S. aureus): 0.87
Relative Antibacterial Potencies (Enterococcus): 2.3
Relative Antibacterial Potencies (Serratia): 2.1
Relative Antibacterial Potencies (E. coli): 0.93
Relative Antibacterial Potencies (Enterobacter): 2.1
DHP-I susceptibility [1]: 0.05

C[C@@H](O)[C@H]1C(=O)N2C(C(=O)O)=C(CN)[C@H](C)[C@H]12 [Example 9, (1S,1′R,5R,6S)-2-aminomethyl-6-(1′-hydroxyethyl)-1-methylcarbapen-2-em-3-carboxylic acid]
Relative Antibacterial Potencies (Ps. aeruginosa): 0.4
Relative Antibacterial Potencies (Klebsiella): 0.2
Relative Antibacterial Potencies (Proteus (Ind. + and -)): 0.2
Relative Antibacterial Potencies (S. aureus): 0.6
Relative Antibacterial Potencies (Enterococcus): 0.3
Relative Antibacterial Potencies (Serratia): 0.2
Relative Antibacterial Potencies (E. coli): 0.2
Relative Antibacterial Potencies (Enterobacter): 0.3
DHP-I susceptibility [1]: 0.06
